# Assay results as given in US20170107180A1, “GLYCOSIDASE INHIBITORS AND USES THEREOF” (Alectos Therapeutics Inc., priority 2012, published 2017).
# Counter-ions that a name gives are not always drawn.
# System: not listed separately
# Experiment: Determination of apparent permeability (Papp), bi-directional transport in LLC-PK1 cells
# Assay type: in vitro ADME
# Settings: pig, test compound 1 μM, t=3 h, average of A to B and B to A
# Experimental: Bi-directional transport is evaluated in LLC-PK1 cells in order to determine apparent permeability (Papp). LLC-PK1 cells can form a tight monolayer and therefore can be used to assess vectorial transport of compounds from basolateral to apical (B→A) and from apical to basolateral (A→B).
# To determine Papp, LLC-PK1 cells are cultured in 96-well transwell culture plates (Millipore). Solutions containing the test compounds (1 μM) are prepared in Hank's Balanced Salt Solution with 10 mM HEPES. Substrate solution (150 μL) is added to either the apical (A) or the basolateral (B) compartment of the culture plate, and buffer (150 μL) is added to the compartment opposite to that containing the compound. At t=3 h, 50 μL samples are removed from both sides of monolayers dosed with test compound and placed in 96 well plates, scintillant (200 μL) or internal standard (100 μL labetolol 1 μM) is added to the samples and concentration is determined by liquid scintillation counting in a MicroBeta Wallac Trilux scintillation counter (Perkin Elmer Life Sciences, Boston, Mass.) or by LCMS/MS (Applied Biosystems SCIEX API 5000 triple quadruple mass spectrometer). [^3H]Verapamil (1 μM) is used as the positive control. The experiment is performed in triplicate.
# The apparent permeability, Papp, is calculated by the following formula for samples taken at t=3 h: […]
row,"Papp at 3 h, 1 μM [×10⁻⁶ cm/s]",Structure (SMILES)
1,3,"CNC(=O)[C@@H]1[C@@H](O)[C@@H](O)[C@H](O)[C@@H](CO)N1CCCc1ccc(-c2ccccc2)cc1 [Example 3, (2S,3R,4S,5R,6R)-1-(3-([1,1′-biphenyl]-4-yl)propyl)-3,4,5-trihydroxy-6-(hydroxymethyl)-N-methylpiperidine-2-carboxamide]"

# Target: T1, human O-GlcNAcase (Homo sapiens, UniProt O60502)
# T1 sequence (O60502 1-916): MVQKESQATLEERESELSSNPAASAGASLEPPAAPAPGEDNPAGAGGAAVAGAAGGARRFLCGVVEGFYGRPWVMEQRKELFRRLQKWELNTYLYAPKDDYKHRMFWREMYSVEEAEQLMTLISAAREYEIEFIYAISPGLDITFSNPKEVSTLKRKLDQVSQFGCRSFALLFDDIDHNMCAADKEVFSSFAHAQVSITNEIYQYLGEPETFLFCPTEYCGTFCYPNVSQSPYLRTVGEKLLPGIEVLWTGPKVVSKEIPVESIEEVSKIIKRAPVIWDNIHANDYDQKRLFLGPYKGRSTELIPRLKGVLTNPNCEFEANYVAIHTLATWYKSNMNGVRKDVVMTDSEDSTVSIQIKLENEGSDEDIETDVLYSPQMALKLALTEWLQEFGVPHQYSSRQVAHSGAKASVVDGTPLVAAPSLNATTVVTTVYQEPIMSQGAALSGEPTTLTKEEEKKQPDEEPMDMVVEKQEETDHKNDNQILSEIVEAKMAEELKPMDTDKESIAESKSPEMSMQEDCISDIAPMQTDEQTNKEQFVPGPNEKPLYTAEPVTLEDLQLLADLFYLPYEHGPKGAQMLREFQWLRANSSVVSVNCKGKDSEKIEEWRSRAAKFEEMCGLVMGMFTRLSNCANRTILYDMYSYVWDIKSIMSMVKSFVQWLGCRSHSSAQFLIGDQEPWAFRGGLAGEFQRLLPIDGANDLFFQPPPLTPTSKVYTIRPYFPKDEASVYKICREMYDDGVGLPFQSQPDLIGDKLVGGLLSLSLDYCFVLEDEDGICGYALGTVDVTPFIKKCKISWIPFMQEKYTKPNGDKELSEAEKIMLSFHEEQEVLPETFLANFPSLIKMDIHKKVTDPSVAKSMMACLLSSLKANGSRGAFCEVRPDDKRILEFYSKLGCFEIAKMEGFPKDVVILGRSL
# Experiment: Determination of KI values for inhibition of O-GlcNAcase activity (fluorescence-based hOGA Ki)
# Assay type: biochemical
# Settings: purified human O-GlcNAcase 0.7 nM, 2 mM 4-Methylumbelliferyl N-acetyl-β-D-glucosaminide, pH 7.0, Cheng-Prusoff
# Experimental: Experimental procedure for kinetic analyses: Enzymatic reactions were carried out in a reaction containing 50 mM NaH2PO4, 100 mM NaCl and 0.1% BSA (pH 7.0) using 2 mM 4-Methylumbelliferyl N-acetyl-β-D-glucosaminide dihydrate (Sigma M2133) dissolved in ddH2O, as a substrate. The amount of purified human O-GlcNAcase enzyme used in the reaction was 0.7 nM. Test compound of varying concentrations was added to the enzyme prior to initiation of the reaction. The reaction was performed at room temperature in a 96-well plate and was initiated with the addition of substrate. The production of fluorescent product was measured every 60 sec for 45 min with a Tecan Infinite M200 plate-reader with excitation at 355 nm and emission detected at […], with 4-Methylumbelliferone (Sigma M1381) used to produce a standard curve. The slope of product production was determined for each concentration of compound tested and plotted, using standard curve fitting algorithms for sigmoidal dose response curves. The values for a four parameter logistic curve fit of the data were determined.
# KI values were determined using the Cheng-Prusoff equation; the Km of O-GlcNAcase for substrate was 0.2 mM.
row,Ki [nM],Structure (SMILES)
1,1700,"CNC(=O)[C@@H]1[C@@H](O)[C@@H](O)[C@H](O)[C@@H](CO)N1CCCc1ccccc1 [Example 5, (2S,3R,4S,5R,6R)-3,4,5-trihydroxy-6-(hydroxymethyl)-N-methyl-1-(3-phenylpropyl)piperidine-2-carboxamide]"
2,1810,"CNC(=O)[C@@H]1[C@@H](O)[C@@H](O)[C@H](O)[C@@H](CO)N1C/C=C/c1ccc(-c2ccccc2)cc1 [Example 2, (2S,3R,4S,5R,6R)-1-((E)-3-([1,1′-biphenyl]-4-yl)allyl)-3,4,5-trihydroxy-6-(hydroxymethyl)-N-methylpiperidine-2-carboxamide]"
3,252,"CNC(=O)[C@@H]1[C@@H](O)[C@@H](O)[C@H](O)[C@@H](CO)N1CCCCc1ccccc1 [Example 7, (2S,3R,4S,5R,6R)-3,4,5-trihydroxy-6-(hydroxymethyl)-N-methyl-1-(4-phenylbutyl)piperidine-2-carboxamide]"
4,1470,"CNC(=O)[C@@H]1[C@@H](O)[C@@H](O)[C@H](O)[C@@H](CO)N1C [Example 1, (2S,3R,4S,5R,6R)-3,4,5-trihydroxy-6-(hydroxymethyl)-N,1-dimethylpiperidine-2-carboxamide hydrochloride]"
5,9.4,"CNC(=O)[C@@H]1[C@@H](O)[C@@H](O)[C@H](O)[C@@H](CO)N1CCCc1ccc(-c2ccccc2)cc1 [Example 3, (2S,3R,4S,5R,6R)-1-(3-([1,1′-biphenyl]-4-yl)propyl)-3,4,5-trihydroxy-6-(hydroxymethyl)-N-methylpiperidine-2-carboxamide]"
6,2500,"CCNC(=O)[C@@H]1[C@@H](O)[C@@H](O)[C@H](O)[C@@H](CO)N1CCCc1ccccc1 [Example 6, (2S,3R,4S,5R,6R)-N-ethyl-3,4,5-trihydroxy-6-(hydroxymethyl)-1-(3-phenylpropyl)piperidine-2-carboxamide]"
7,620,"CNC(=O)[C@@H]1[C@@H](O)[C@@H](O)[C@H](O)[C@@H](CO)N1CCCCC(C)C [Example 8, (2S,3R,4S,5R,6R)-3,4,5-trihydroxy-6-(hydroxymethyl)-N-methyl-1-(5-methylhexyl)piperidine-2-carboxamide]"
8,165,"CNC(=O)[C@H]1N[C@H](CO)[C@@H](O)[C@H](O)[C@@H]1O [(2S,3R,4S,5R,6R)-3,4,5-trihydroxy-6-(hydroxymethyl)-N-methylpiperidine-2-carboxamide (hydrochloride salt), reference compound]"
9,3300,"CCNC(=O)[C@H]1N[C@H](CO)[C@@H](O)[C@H](O)[C@@H]1O [Example 4, (2S,3R,4S,5R,6R)-N-ethyl-3,4,5-trihydroxy-6-(hydroxymethyl)piperidine-2-carboxamide hydrochloride]"
